Experimental data from PubChem BioAssay (NCI).
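These data come from cells grown in 96-well plates and exposed to compound for 48 hours at five concentrations. Abbreviation: GI50, concentration required for 50% inhibition of growth. TGI is the concentration that stops growth completely.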

What was measured:
Assay in all cases: growth of human tumour cells (NCI), 48 h
A549 NSCLC = tested on: A549 NSCLC
ACHN renal = tested on: ACHN renal
BT-549 breast = tested on: BT-549 breast
CAKI-1 renal = tested on: CAKI-1 renal
CCRF-CEM leukemia = tested on: CCRF-CEM leukemia
COLO 205 colon = tested on: COLO 205 colon
DLD-1 colon = tested on: DLD-1 colon
DU-145 prostate = tested on: DU-145 prostate
EKVX NSCLC = tested on: EKVX NSCLC
HCC-2998 colon = tested on: HCC-2998 colon
HCT-116 colon = tested on: HCT-116 colon
HCT-15 colon = tested on: HCT-15 colon
HOP-18 NSCLC = tested on: HOP-18 NSCLC
HOP-92 NSCLC = tested on: HOP-92 NSCLC
HT29 colon = tested on: HT29 colon
IGROV1 ovarian = tested on: IGROV1 ovarian
K-562 leukemia = tested on: K-562 leukemia
KM20L2 colon = tested on: KM20L2 colon
LOX IMVI melanoma = tested on: LOX IMVI melanoma
LXFL 529 NSCLC = tested on: LXFL 529 NSCLC
M14 melanoma = tested on: M14 melanoma
M19-MEL melanoma = tested on: M19-MEL melanoma
MALME-3M melanoma = tested on: MALME-3M melanoma
MDA-MB-231 breast = tested on: MDA-MB-231 breast
MDA-MB-435 = tested on: MDA-MB-435
MOLT-4 leukemia = tested on: MOLT-4 leukemia
NCI-H226 lung = tested on: NCI-H226 lung
NCI-H460 lung = tested on: NCI-H460 lung
NCI-H522 lung = tested on: NCI-H522 lung
NCI/ADR-RES ovarian = tested on: NCI/ADR-RES ovarian
OVCAR-3 ovarian = tested on: OVCAR-3 ovarian
OVCAR-4 ovarian = tested on: OVCAR-4 ovarian
OVCAR-5 ovarian = tested on: OVCAR-5 ovarian
OVCAR-8 ovarian = tested on: OVCAR-8 ovarian
PC-3 prostate = tested on: PC-3 prostate
RPMI-8226 leukemia = tested on: RPMI-8226 leukemia
RXF 393 renal = tested on: RXF 393 renal
SF-539 CNS = tested on: SF-539 CNS
SK-MEL-28 melanoma = tested on: SK-MEL-28 melanoma
SK-MEL-5 melanoma = tested on: SK-MEL-5 melanoma
SNB-19 CNS = tested on: SNB-19 CNS
SNB-75 CNS = tested on: SNB-75 CNS
SR leukemia = tested on: SR leukemia
SW-620 colon = tested on: SW-620 colon
TK-10 renal = tested on: TK-10 renal
U251 CNS = tested on: U251 CNS
UACC-257 melanoma = tested on: UACC-257 melanoma
XF 498 CNS = tested on: XF 498 CNS

Molecule `C[CH2][Sn]([CH2]C)([O]C(=O)c1cccc(OC)c1)[O][Sn]([CH2]C)([CH2]C)[O]C(=O)c1cccc(OC)c1` has a GI50 (A549 NSCLC) greater than 100 µM, a TGI (A549 NSCLC) greater than 100 µM and a GI50 (ACHN renal) of 17.1 µM. The TGI (ACHN renal) was 31.4 µM, the GI50 (BT-549 breast) was 15.4 µM and the TGI (BT-549 breast) was 29.4 µM. It also gave a GI50 (CAKI-1 renal) of 11.8 µM, a TGI (CAKI-1 renal) of 24.3 µM and a GI50 (CCRF-CEM leukemia) of 3.17 µM. The TGI (CCRF-CEM leukemia) was 17.7 µM, the GI50 (COLO 205 colon) was 22 µM and the TGI (COLO 205 colon) was greater than 54.8 µM. The GI50 (DLD-1 colon) was 14.3 µM, the TGI (DLD-1 colon) was 29.6 µM and the GI50 (DU-145 prostate) was greater than 100 µM. For the same molecule, the TGI (DU-145 prostate) was greater than 100 µM, the GI50 (EKVX NSCLC) was greater than 40.8 µM and the TGI (EKVX NSCLC) was greater than 55.6 µM. The GI50 (HCC-2998 colon) was greater than 76 µM, the TGI (HCC-2998 colon) was greater than 100 µM and the GI50 (HCT-116 colon) was greater than 43.2 µM. The TGI (HCT-116 colon) was greater than 58.8 µM, the GI50 (HCT-15 colon) was 17.4 µM and the TGI (HCT-15 colon) was 35.4 µM. It also gave a GI50 (HOP-18 NSCLC) of 15.9 µM, a TGI (HOP-18 NSCLC) of 29.3 µM and a GI50 (HOP-92 NSCLC) of 15 µM. It also gave a TGI (HOP-92 NSCLC) of 29.8 µM, a GI50 (HT29 colon) of 33.2 µM and a TGI (HT29 colon) greater than 100 µM. The GI50 (IGROV1 ovarian) was greater than 100 µM, the TGI (IGROV1 ovarian) was greater than 100 µM and the GI50 (K-562 leukemia) was 9.4 µM. For the same molecule, the TGI (K-562 leukemia) was 60.3 µM, the GI50 (KM20L2 colon) was 43.6 µM and the TGI (KM20L2 colon) was greater than 100 µM. The GI50 (LOX IMVI melanoma) was 11.4 µM, the TGI (LOX IMVI melanoma) was 25.9 µM and the GI50 (LXFL 529 NSCLC) was 10.1 µM. For the same molecule, the TGI (LXFL 529 NSCLC) was 21.7 µM, the GI50 (M14 melanoma) was 30.9 µM and the TGI (M14 melanoma) was greater than 59.4 µM. For the same molecule, the GI50 (M19-MEL melanoma) was 17.1 µM, the TGI (M19-MEL melanoma) was 31.7 µM and the GI50 (MALME-3M melanoma) was 15 µM. The TGI (MALME-3M melanoma) was 30.4 µM, the GI50 (MDA-MB-231 breast) was 16 µM and the TGI (MDA-MB-231 breast) was 33.5 µM. It also gave a GI50 (MDA-MB-435) of 18.8 µM, a TGI (MDA-MB-435) of 42.4 µM and a GI50 (MOLT-4 leukemia) of 27.9 µM. It also gave a TGI (MOLT-4 leukemia) greater than 72.4 µM, a GI50 (NCI-H226 lung) of 18.4 µM and a TGI (NCI-H226 lung) of 33.2 µM. For the same molecule, the GI50 (NCI-H460 lung) was greater than 71 µM, the TGI (NCI-H460 lung) was greater than 100 µM and the GI50 (NCI-H522 lung) was 0.879 µM. The TGI (NCI-H522 lung) was 2.4 µM, the GI50 (NCI/ADR-RES ovarian) was greater than 100 µM and the TGI (NCI/ADR-RES ovarian) was greater than 100 µM. It also gave a GI50 (OVCAR-3 ovarian) of 58 µM, a TGI (OVCAR-3 ovarian) greater than 100 µM and a GI50 (OVCAR-4 ovarian) of 17.9 µM. For the same molecule, the TGI (OVCAR-4 ovarian) was 35.3 µM, the GI50 (OVCAR-5 ovarian) was 27 µM and the TGI (OVCAR-5 ovarian) was greater than 61.6 µM. For the same molecule, the GI50 (OVCAR-8 ovarian) was greater than 42.1 µM, the TGI (OVCAR-8 ovarian) was greater than 57 µM and the GI50 (PC-3 prostate) was greater than 100 µM. The TGI (PC-3 prostate) was greater than 100 µM, the GI50 (RPMI-8226 leukemia) was 13 µM and the TGI (RPMI-8226 leukemia) was 54.3 µM. It also gave a GI50 (RXF 393 renal) of 15 µM, a TGI (RXF 393 renal) of 28.4 µM and a GI50 (SF-539 CNS) of 16.4 µM. It also gave a TGI (SF-539 CNS) of 30.4 µM, a GI50 (SK-MEL-28 melanoma) of 16.3 µM and a TGI (SK-MEL-28 melanoma) of 35.9 µM. The GI50 (SK-MEL-5 melanoma) was 42.9 µM, the TGI (SK-MEL-5 melanoma) was greater than 64 µM and the GI50 (SNB-19 CNS) was 23.1 µM. It also gave a TGI (SNB-19 CNS) of 57.1 µM, a GI50 (SNB-75 CNS) of 14.6 µM and a TGI (SNB-75 CNS) of 42.2 µM. The GI50 (SR leukemia) was 26.3 µM, the TGI (SR leukemia) was greater than 100 µM and the GI50 (SW-620 colon) was 16.7 µM. The TGI (SW-620 colon) was 33.1 µM, the GI50 (TK-10 renal) was 16.8 µM and the TGI (TK-10 renal) was 30.7 µM. The GI50 (U251 CNS) was 18.6 µM, the TGI (U251 CNS) was 35.1 µM and the GI50 (UACC-257 melanoma) was 17.2 µM. It also gave a TGI (UACC-257 melanoma) of 34.6 µM, a GI50 (XF 498 CNS) of 16.1 µM and a TGI (XF 498 CNS) of 29.6 µM.
